From publication PMC8904767, “Engineering an acetoacetyl-CoA reductase from Cupriavidus necator toward NADH preference under physiological conditions” (Scientific Reports, 2022)

Key:
Chimera 5 [1] = molecular target: T1, Chimera 5 (Cupriavidus necator, UniProt P14697, G33A/N37E/S38F/R40K/R41P/E46K, form not given); assay: reaction progress curve analysis, absorbance […] nm; format: biochemical; details: AcAcCoA 2 mM; MOPS 50 mM, NaCl 5 mM, MgCl2 5 mM, pH 7.0, 30 °C; apparent kcat; read-out: Chimera5
T1 construct: gene phaB; AAR^Cn1 with segment G33-E46 replaced by A33-K46 of AAR^CAp (residues 36 and 44 conserved); E. coli BL21(DE3), IMAC
T1 sequence (P14697 whole entry G33A/N37E/S38F/R40K/R41P/E46K, form open): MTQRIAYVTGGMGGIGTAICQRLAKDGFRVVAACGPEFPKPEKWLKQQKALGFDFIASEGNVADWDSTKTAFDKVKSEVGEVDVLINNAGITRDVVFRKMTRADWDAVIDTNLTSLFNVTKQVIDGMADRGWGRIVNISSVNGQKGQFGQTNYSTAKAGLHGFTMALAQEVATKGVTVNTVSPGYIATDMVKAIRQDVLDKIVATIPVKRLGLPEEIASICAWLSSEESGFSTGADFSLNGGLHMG

[2] = molecular target: T2, Chimera 1 backbone (Chimera 2, Chimera 3, Chimera 4) (Cupriavidus necator, UniProt P14697, N37E/S38A/R40K/R41P, form not given); assay: as above; format: biochemical; details: AcAcCoA 2 mM, MOPS 50 mM, NaCl 5 mM, MgCl2 5 mM, pH 7.0, 30 °C, apparent kcat, read-out: Chimera3
T2 construct: gene phaB; AAR^Cn1 with N37-R41 replaced by E37-P41 of AAR^CAp (E37, F38, K40, P41 told in text); E. coli BL21(DE3), IMAC
T2 sequence (P14697 whole entry N37E/S38A/R40K/R41P, form open): as the sequence (P14697 whole entry G33A/N37E/S38F/R40K/R41P/E46K, form open) above, with A33G, F38A, K46E counted along it

[3] = molecular target: T3, Chimera 1 backbone (Chimera 2, Chimera 3, Chimera 4) (Cupriavidus necator, UniProt P14697, N37E/S38E/R40Q/R41P, form not given); assay: as above; format: biochemical; details: AcAcCoA 2 mM, MOPS 50 mM, NaCl 5 mM, MgCl2 5 mM, pH 7.0, 30 °C, apparent kcat, read-out: Chimera4
T3 construct: gene phaB; AAR^Cn1 with N37-R41 replaced by E37-P41 of AAR^CAp (E37, F38, K40, P41 told in text); E. coli BL21(DE3), IMAC
T3 sequence (P14697 whole entry N37E/S38E/R40Q/R41P, form open): as the sequence (P14697 whole entry G33A/N37E/S38F/R40K/R41P/E46K, form open) above, with A33G, F38E, K40Q, K46E counted along it

[4] = molecular target: T4, Chimera 1 backbone (Chimera 2, Chimera 3, Chimera 4) (Cupriavidus necator, UniProt P14697, N37E/S38F/R40K/R41G, form not given); assay: as above; format: biochemical; details: AcAcCoA 2 mM, MOPS 50 mM, NaCl 5 mM, MgCl2 5 mM, pH 7.0, 30 °C, apparent kcat, read-out: Chimera2
T4 construct: gene phaB; AAR^Cn1 with N37-R41 replaced by E37-P41 of AAR^CAp (E37, F38, K40, P41 told in text); E. coli BL21(DE3), IMAC
T4 sequence (P14697 whole entry N37E/S38F/R40K/R41G, form open): as the sequence (P14697 whole entry G33A/N37E/S38F/R40K/R41P/E46K, form open) above, with A33G, P41G, K46E counted along it

Chimera 5 [5] = molecular target: T1, Chimera 5; assay: initial rates and reaction progress curves, global fit; format: biochemical; details: MOPS 50 mM, NaCl 5 mM, MgCl2 5 mM, pH 7.0, 30 °C
Text: initial rates and reaction progress curves, global fit on Chimera 5

purified protein [6] = substrate: NC(=O)C1=CN([C@@H]2O[C@H](COP(=O)(O)OP(=O)(O)OC[C@H]3O[C@@H](n4cnc5c(N)ncnc54)[C@H](OP(=O)(O)O)[C@@H]3O)[C@@H](O)[C@H]2O)C=CC1; assay: purified protein; format: biochemical, Cupriavidus necator; details: AcAcCoA 2 mM, MOPS 50 mM, NaCl 5 mM, MgCl2 5 mM, pH 7.0, 30 °C, apparent kcat, varied: cofactor
purified protein [7] = substrate: NC(=O)C1=CN([C@@H]2O[C@H](COP(=O)(O)OP(=O)(O)OC[C@H]3O[C@@H](n4cnc5c(N)ncnc54)[C@H](O)[C@@H]3O)[C@@H](O)[C@H]2O)C=CC1; assay: purified protein; format: biochemical, Cupriavidus necator; details: AcAcCoA 2 mM, MOPS 50 mM, NaCl 5 mM, MgCl2 5 mM, pH 7.0, 30 °C, apparent kcat, varied: cofactor

Molecule	Km (Chimera 5 [1])	Km [2]	Km [3]	Km [4]	also measured
CC(=O)CC(=O)SCCNC(=O)CCNC(=O)[C@H](O)C(C)(C)COP(=O)(O)OP(=O)(O)OC[C@H]1O[C@@H](n2cnc3c(N)ncnc32)[C@H](O)[C@@H]1OP(=O)(O)O [AcAcCoA]	–	–	–	–	Km (Chimera 5 [5]; NADH 1 mM, substrate inhibition model with KiS = KM): 50 µM; NADPH (Chimera 5 [5]; substrate inhibition, second site, NADPH 1 mM): 324 [195–465] µM
AAR^Cn1 (acetoacetyl-CoA reductase encoded by phaB1) (Cupriavidus necator H16) (protein, recombinant, expressed in E. coli BL21(DE3), purified by IMAC) MTQRIAYVTGGMGGIGTAICQRLAKDGFRVVAGCGPNSPRREKWLEQQKALGFDFIASEGNVADWDSTKTAFDKVKSEVGEVDVLINNAGITRDVVFRKMTRADWDAVIDTNLTSLFNVTKQVIDGMADRGWGRIVNISSVNGQKGQFGQTNYSTAKAGLHGFTMALAQEVATKGVTVNTVSPGYIATDMVKAIRQDVLDKIVATIPVKRLGLPEEIASICAWLSSEESGFSTGADFSLNGGLHMG	–	–	–	–	Km (purified protein [6]): 44 [40–49] µM; kcat (purified protein [6]): 5.2 s⁻¹; kcat/Km (purified protein [6]): 118000 M⁻¹ s⁻¹; Km (purified protein [7]): 819 [688–975] µM; kcat (purified protein [7]): 10.3 s⁻¹; kcat/Km (purified protein [7]): 13000 M⁻¹ s⁻¹

Second part, led by results:

Km (Chimera 5 [1])	Km [2]	Km [3]	Km [4]	Molecule	also measured
2790 µM	1750 µM	120 µM	1120 µM	NC(=O)C1=CN([C@@H]2O[C@H](COP(=O)(O)OP(=O)(O)OC[C@H]3O[C@@H](n4cnc5c(N)ncnc54)[C@H](OP(=O)(O)O)[C@@H]3O)[C@@H](O)[C@H]2O)C=CC1 [NADPH]	–
43 µM	886 µM	618 µM	140 µM	NC(=O)C1=CN([C@@H]2O[C@H](COP(=O)(O)OP(=O)(O)OC[C@H]3O[C@@H](n4cnc5c(N)ncnc54)[C@H](O)[C@@H]3O)[C@@H](O)[C@H]2O)C=CC1 [NADH]	–
